Our source for the inhibition in vivo values is US20030013656A1, “Pyruvate derivatives” (priority 2001, published 2003).

This test has as its system rat middle cerebral artery occlusion (MCAO) model. Description: Rat middle cerebral artery occlusion (MCAO) model of cerebral ischemia. It is filed as in vivo. To be noted: 2 h, doses in the range of less than about 1 μg/kg to less than about 10 mg/kg, two hours MCAO, read-out: reduction in total infarct volume. As to the method: Male Wistar rats (Harlan, Ind.) weighing 300-350 g are commonly used in these experiments. Animals are allowed free access to water and commercial rodent diet under standard laboratory conditions. Room temperature is maintained at 20-23° C. and room illumination is on a 12/12-hour light/dark cycle. Animals are acclimatized to the laboratory environment 5 to 7 days prior to the study, and fasted (with free access to water) overnight before surgery.
Anesthesia is maintained by inhalation of 3.0% isoflurane (Aerrane, Front Dodge, Iowa) in […]. The animal's neck is shaved and sterilized before operation. Body temperatures are controlled and maintained at 37.5° C.+/−1 degree via external heating and cooling devices. To lower the body temperature, animals are placed in a cooling chamber that uses ice to cool circulating air. Throughout the study the body temperature is recorded using a temperature transponder (BMDS Inc., Seaford, Del.) implanted subcutaneously at the time of MCAO between the rat shoulder blades, which allows the user to read the body temperature via a pocket scanner (BMDS Inc., Seaford, Del.). The body temperature can also be taken by inserting the temperature probe into the animal's rectum. Body temperature is recorded every hour for 6 hours post-occlusion, but temperature is measured more frequently to facilitate maintaining the animals' normothermic temperature.
Animals are subjected to two hours MCAO using a modified intraluminal filament technique, as follows. A midline incision on the ventral part of the neck is made to expose external and internal carotid arteries. The right external and common carotid arteries are ligated by a suture (silk 5/0, Carlisle Laboratories, Farmers Branch, Tex.) and the right internal artery is temporarily ligated using a microvascular clip (Fine Science Tool Inc., Foster City, Calif.). A small incision is made in the common carotid artery. A nylon filament, its tip rounded by heating, is prepared from a fishing line (Stren Fishing Lines, Wilmington, Del.) and is inserted from the right common carotid artery. The filament is advanced into the internal carotid artery 18-20 mm from the point of bifurcation of internal and external arteries and a suture is tightly ligated around the filament. Two hours post occlusion, animals are re-anesthetized to allow reperfusion for the remaining of the experiment by removal of the filament. C. Drug Administration
Test compounds can be administered by any of a number of routes, such as those described below. Compounds can be administered before, during or after occlusion, as appropriate to the protocol.
One hour after MCAO, the animal is gently held by its tail and observed for forelimb flexion. Then the animal is placed on the floor to be observed for walking pattern; only the animals that score 3 on the Bederson grading system (Table 1) are included in the study.
Twenty-four hours post-MCAO, or longer in some experiments, animals are sacrificed by CO2 asphyxiation (dry ice). The brain is quickly removed from the skull, using standard procedures, rinsed in chilled saline solution, and placed on a rat brain tissue slicer (ASI instrument, MI). Seven 2-mm thick coronal slices are cut from each brain using razor blades. The slices are immersed in 0.9% saline containing 1.0% 2,3,5-triphenyltetrazolume chloride (TTC) (Sigma Chemical Co., St. Louis, Mo.) and incubated in a 37° C. water bath for 30 minutes.
After staining, each 2-mm slice is photographed with a TMC-7 camera (JH Technologies, Ca) which is directly connected to a desktop PC to capture and save the image of each brain slice. This image is used for the measurements of the regions of interest using a computer-based image processing system (Metamorph).
To measure each area, the region of interest is selected using a freehand selection tool, the area is automatically computed by selecting the measure command. […]
Turning to `NC(CCC(=O)NC(CSCC(=O)C(=O)N1CCCCC1)C(=O)NCC(=O)O)C(=O)O` (centres unmarked) [2-Amino-4-[1-(carboxymethyl-carbamoyl)-2-(2,3-dioxo-3-piperidin-1-yl-propylsulfanyl)-ethylcarbamoyl]-butyric acid], the inhibition in vivo at up to 10 mg/kg lay in the range of 20 to 80%.

Turning to `CCOC(=O)/C(CSCC(NC(=O)CCC(N)C(=O)O)C(=O)NCC(=O)O)=N\OC` (centres unmarked) [2-Amino-4-[1-(carboxymethyl-carbamoyl)-2-(2-ethoxycarbonyl-2-methoxyimino-ethylsulfanyl)-ethylcarbamoyl]-butyric acid], the inhibition in vivo at up to 10 mg/kg was in the range of 20 to 80%.

Take `NC(CCC(=O)NC(CSCC(=NO)C(=O)N1CCCCC1)C(=O)NCC(=O)O)C(=O)O` (centres unmarked) [2-Amino-4-[1-(carboxymethyl-carbamoyl)-2-(2-hydroxyimino-3-oxo-3-piperidin-1-yl-propylsulfanyl)-ethylcarbamoyl]-butyric acid]: the inhibition in vivo at up to 10 mg/kg is 20 to 80%.

Regarding `CCCCOC(=O)C(CSCC(NC(=O)CCC(N)C(=O)O)C(=O)NCC(=O)O)=NOCc1ccccc1` (centres unmarked) [2-Amino-4-[2-(2-benzyloxyimino-2-butoxycarbonyl-ethylsulfanyl)-1-(carboxymethyl-carbamoyl)-ethylcarbamoyl]-butyric acid], the inhibition in vivo at up to 10 mg/kg is 20 to 80%.

On to `CCCCOC(=O)C(CSCC(NC(=O)CCC(N)C(=O)O)C(=O)NCC(=O)O)=NOC` (centres unmarked) [2-Amino-4-[2-(2-butoxycarbonyl-2-methoxyimino-ethylsulfanyl)-1-(carboxymethyl-carbamoyl)-ethylcarbamoyl]-butyric acid], for which the inhibition in vivo at up to 10 mg/kg lay within 20 to 80%.

As for `COC(=O)C(Cc1ccccc1)NC(=O)C(=O)CSCC(NC(=O)CCC(N)C(=O)O)C(=O)NCC(=O)O` (centres unmarked) [2-Amino-4-{1-(carboxymethyl-carbamoyl)-2-[2-(1-methoxycarbonyl-2-phenyl-ethylcarbamoyl)-2-oxo-ethylsulfanyl]-ethylcarbamoyl}-butyric acid], the inhibition in vivo at up to 10 mg/kg is 20 to 80%.

Turning to `CCOC(=O)C(N)CCC(=O)NC(CSCC(=O)C(=O)O)C(=O)NCC(=O)O` (centres unmarked) [2-amino-4-[1-(carboxymethyl-carbamoyl)-2-(2-carboxy-2-oxo-ethylsulfanyl)-ethylcarbamoyl]-butyric acid ethyl ester], the inhibition in vivo at up to 10 mg/kg is 20 to 80%.

Regarding `NC(CCC(=O)NC(CSCC(=O)C(=O)O)C(=O)NCC(=O)O)C(=O)O` (centres unmarked) [2-amino-4-[1-(carboxymethyl-carbamoyl)-2-(2-carboxy-2-oxo-ethylsulfanyl)-ethylcarbamoyl]-butyric acid], the inhibition in vivo at up to 10 mg/kg was in the range of 20 to 80%.

Take `CCOC(=O)C(CSCC(NC(=O)CCC(N)C(=O)O)C(=O)NCC(=O)O)=NO` (centres unmarked) [2-amino-4-[1-(carboxymethyl-carbamoyl)-2-(2-ethoxycarbonyl-2-hydroxyimino-ethylsulfanyl)-ethylcarbamoyl]-butyric acid]: the inhibition in vivo at up to 10 mg/kg was 20 to 80%.

On to `CCCCCCOC(=O)C(=O)CSCC(NC(=O)CCC(N)C(=O)O)C(=O)NCC(=O)O` (centres unmarked) [2-amino-4-[1-(carboxymethyl-carbamoyl)-2-(2-hexyloxycarbonyl-2-oxo-ethylsulfanyl)-ethylcarbamoyl]-butyric acid], for which the inhibition in vivo at up to 10 mg/kg was in the range of 20 to 80%.

Regarding `CCOC(=O)C(=O)CSc1nc2ccccc2[nH]1` [3-(1H-Benzoimidazol-2-ylsulfanyl)-2-oxo-propionic acid ethyl ester], the inhibition in vivo at up to 10 mg/kg was in the range of 20 to 80%.

Take `CCOC(=O)C(=O)CSC1=NCCS1` [3-(4,5-dihydro-thiazol-2-ylsulfanyl)-2-oxo-propionic acid ethyl ester]: the inhibition in vivo at up to 10 mg/kg is 20 to 80%.

`CCOC(=O)C(=O)CSc1nc2cc(OC)ccc2[nH]1` [3-(5-methoxy-1H-benzoimidazol-2-ylsulfanyl)-2-oxo-propionic acid ethyl ester]: the inhibition in vivo at up to 10 mg/kg was 20 to 80%.

With `CCOC(=O)C(=O)CSc1nc2cc([N+](=O)[O-])ccc2[nH]1` [3-(5-nitro-1H-benzoimidazol-2-ylsulfanyl)-2-oxo-propionic acid ethyl ester], the inhibition in vivo at up to 10 mg/kg is 20 to 80%.
